# Assay results taken from patent US20070015733A1, “Aryl Phosphate Derivatives of d4T having Activity Against Resistant HIV Strains” (Parker Hughes Institute, priority 1998, published 2007).
# Where two headings read alike, the source gives them in different places.
# Assays:
# [1] = test system: NRTI-resistant recombinant HIV-1 isolates; test: p24 assay, multi-NRTI-resistant recombinant HIV-1 clones; assay type: cell-based
# [2] = test system: AZT-sensitive HIV-1 (strain: HTLVIIIB); test: Inhibition of HIV-1 HTLVIIIB in PBMC, RT activity assays (Example 14); assay type: cell-based; settings: Human immunodeficiency virus 1, PBMC
# Description: The compounds, as well as AZT, were tested for their ability to inhibit HIV replication in peripheral blood mononuclear cells using previously described procedures (Zarling et. al., 1990 Nature 347:92; Erice et. al., 1993 Antimicrob. Agents Chemother. 37:835; Uckun et. al., 1998 Antimicrob. Agents Chemother. 42:383). […] Percent viral inhibition was calculated by comparing the RT activity values from the test substance-treated infected cells with RT values from untreated infected cells (i.e., virus controls).
# [3] = test system: NRTI-resistant recombinant HIV-1 isolates; test: RT activity assay, multi-NRTI-resistant recombinant HIV-1 clones; assay type: cell-based
# [4] = test system: NRTI-resistant recombinant HIV-1 isolates; settings: cited from earlier work
# [5] = test system: zidovudine-resistant primary clinical HIV-1 isolates in CD4-expressing HeLa cell line HT4-6C; test: Syncytial focus (plaque) formation assay in HT4-6C cells; assay type: cell-based; settings: Human immunodeficiency virus 1, HeLa
# Description: Plaque formation assays. The syncytial focus (plaque) assay permits quantitation of infectivity of HIV. In brief, a CD4-expressing HeLa cell line (HT4-6C) (AIDS Research and Reference Reagent Program, NIAID) is cultured in 24-well tissue culture plates at 2.5-3.0×10^4 cells/ml in the presence of virus inoculum (100 plaque forming units) and several concentrations of the antiviral agent. The virus was added first for a 2 hr incubation time prior to addition of the antiviral agents. […] Percent inhibition of plaque formation was calculated by comparing the plaque numbers from the test substance-treated infected cells with the plaque numbers from untreated infected cells (i.e., virus controls).
# [6] = cited from earlier work
# [7] = twice daily hard gelatin capsules 25-100 mg/kg; cumulative dose levels as high as […]; cited from earlier work
# [8] = Stability in plasma, whole blood, gastric fluid and intestinal fluid; assay type: in vitro ADME
# Description: Ala-d4T-MP is stable both in plasma and in whole blood. […] This hypothesis is consistent with the formation of a significant amount of d4T after incubation of d4T-5′-[p-bromophenyl methoxyalaninyl phosphate] with a liver homogenate.
# Orally administered d4T-5′-[p-bromophenyl methoxyalaninyl phosphate] also yielded Ala-d4T-MP and d4T as the major metabolites. […] This metabolite can be absorbed in the intestine and then further metabolized to yield d4T in the blood. The tmax and t1/2 values for d4T in mice were longer when derived from orally administered d4T-5′-[p-bromophenyl methoxyalaninyl phosphate] (42.4 minutes and 99.0 minutes, respectively) than from orally administered d4T (5 minutes and 18 minutes, respectively). The tmax value is higher but the t1/2 value is lower for orally administered d4T-5′-[p-bromophenyl methoxyalaninyl phosphate] compared to intravenously administered d4T-5′-[p-bromophenyl methoxyalaninyl phosphate]. […] However, the bioavailability of d4T metabolized from d4T-5′-[p-bromophenyl methoxyalaninyl phosphate] (48%) was lower than that of orally administered d4T (98%).
# human T-cell line MT2 = test: Cytotoxicity in MT2 cells; assay type: cell-based; settings: even at a 100 μM concentration
# Excerpt: Dozens of mutant strains have been characterized as resistant to NNRTI compounds, including L1001, K103N, V106A, E138K, Y181C and Y188H/L. In particular, the Y181 C and K103N mutants may be the most difficult to treat, because they are resistant to most of the NNRTIs compounds that have been examined. […] These clinical HIV-1 isolates also harbor additional RT gene mutations conferring NRTI-resistance and display a zidovudine-resistant phenotype (see Table 11 and Table 12).
# [9] = Pharmacokinetics after intravenous or oral administration; assay type: in vivo, mice; settings: for elimination half-life (t1/2) of the administered substance: intravenous administration
# [10] = Human immunodeficiency virus 1, read-out: IC50 (nM), p24, recombinant clone 1617-1 (151 complex)
# [11] = Human immunodeficiency virus 1, read-out: IC50 (nM), p24, recombinant clone 4755-5
# [12] = Human immunodeficiency virus 1, read-out: IC50 (nM), p24, recombinant clone 7295-1
# [13] = Human immunodeficiency virus 1, read-out: IC50 (nM), p24, recombinant clone 7324-1
# [14] = Human immunodeficiency virus 1, read-out: IC50 (nM), p24, recombinant clone 52252-1 in Table 18, 56252-1 in Tables 19 and 20 (K65R, 151 complex)
# [15] = Human immunodeficiency virus 1, read-out: IC50 (nM), p24, recombinant clone printed 52534-1 in Table 18, 52534-2 in Tables 19 and 20 (69 insertion complex)
# [16] = Human immunodeficiency virus 1, read-out: mean IC50 value, recombinant clones with 151 complex or 69 insertion complex (Group 3+Group 4)
# [17] = Human immunodeficiency virus 1, read-out: IC50 (nM), RT, recombinant clone 1617-1
# [18] = Human immunodeficiency virus 1, read-out: IC50 (nM), RT, recombinant clone 4755-5
# [19] = Human immunodeficiency virus 1, read-out: IC50 (nM), RT, recombinant clone 7295-1
# [20] = Human immunodeficiency virus 1, read-out: IC50 (nM), RT, recombinant clone 7324-1
# [21] = Human immunodeficiency virus 1, read-out: IC50 (nM), RT, recombinant clone 52534-2
# [22] = Human immunodeficiency virus 1, read-out: IC50 (nM), RT, recombinant clone 56252-1
# [23] = Human immunodeficiency virus 1, read-out: mean IC50, RT, mean over 6 multi-NRTI-resistant clones
# [24] = read-out: IC50, μM(Plaque Assay), Mean ± SE, mean over 9 zidovudine-resistant isolates
# [25] = read-out: IC50, μM(Plaque Assay), isolate G190-6 (M41L, D67N, K70R, T215Y, K219Q)
# [26] = read-out: IC50, μM(Plaque Assay), isolate G691-2 (mutations N.D.)
# [27] = read-out: IC50, μM(Plaque Assay), isolate G704-2 (M41L, D67N, K70R, L210W, T215Y)
# [28] = read-out: IC50, μM(Plaque Assay), isolate G780-1 (M41L, D67N, K70R, T215F, K219Q)
# [29] = read-out: IC50, μM(Plaque Assay), isolate G890-1 (K20R, M41L, D67N, T69N, K70R, L210W, T215Y)
# [30] = read-out: IC50, μM(Plaque Assay), isolate H112-2 (no RT mutation, ZDV-sensitive control)
# [31] = read-out: IC50, μM(Plaque Assay), isolate J179-1 (M41L, D67N, L210W, T215Y)
# [32] = read-out: IC50, μM(Plaque Assay), isolate M709-1 (L1210W, T215Y)
# [33] = read-out: IC50, μM(Plaque Assay), isolate Q252-2 (M41L, L210W, T215Y)
# [34] = read-out: IC50, μM(Plaque Assay), isolate U317-8 (M41L, L210W, T215Y)
# [35] = multi-NRTI-resistant clones, IC50 RT
structure (smiles),measurement,setting,value
"Cc1cn([C@H]2C[C@H](N=[N+]=[N-])[C@@H](CO)O2)c(=O)[nH]c1=O [AZT, 3′-azido-3′-deoxythymidine]",IC50,[1]; [10],320 nM
same,IC50,[1]; [11],165 nM
same,IC50,[1]; [12],137 nM
same,IC50,[1]; [13],> 1000 nM
same,IC50,[1]; [14],> 1000 nM
same,IC50,[1]; [15],> 1000 nM
same,IC50,[1]; [16],773 ± 227 nM
same,IC50,"[2]; Table 15, preliminary, first human source of PBMC",7 nM
same,IC50,"[2]; Table 16, AZT values in nM per footnote",81.7 nM
same,IC50,"[2]; Table 17, later analysis from a larger sample pool",4 ± 1 nM
same,IC50,[3]; [17],174 nM
same,IC50,[3]; [18],15.4 nM
same,IC50,[3]; [19],0.8 nM
same,IC50,[3]; [20],108 nM
same,IC50,[3]; [21],54.8 nM
same,IC50,[3]; [22],187 nM
same,IC50,[3]; [23],90 ± 32.4 nM
same,Fold decreased susceptibility,[4]; recombinant clone 1617-1,261 fold
same,Fold decreased susceptibility,[4]; recombinant clone 4755-5,61 fold
same,Fold decreased susceptibility,[4]; recombinant clone 7295-1,9.9 fold
same,Fold decreased susceptibility,[4]; recombinant clone 7324-1,923 fold
same,Fold decreased susceptibility,[4]; recombinant clone 52534-2,719 fold
same,Fold decreased susceptibility,[4]; recombinant clone 56252-1,>1000 fold
same,IC50,[5]; [24],3.9 ± 1 µM
same,IC50,[5]; [25],10 µM
same,IC50,[5]; [26],7.8 µM
same,IC50,[5]; [27],5.7 µM
same,IC50,[5]; [28],1.8 µM
same,IC50,[5]; [29],3.6 µM
same,IC50,[5]; [30],0.015 µM
same,IC50,[5]; [31],2.6 µM
same,IC50,[5]; [32],3 µM
same,IC50,[5]; [33],2.8 µM
same,IC50,[5]; [34],2 µM
"COC(=O)C(C)NP(=O)(OC[C@@H]1C=C[C@H](n2cc(C)c(=O)[nH]c2=O)O1)Oc1ccc(Br)cc1 (stereo partly drawn) [Compound 1c, d4T-5′-[p-bromo-phenylmethoxyalaninyl phosphate]]",toxicity on daily administration,"[6]; intraperitoneally or orally for up to 8 consecutive weeks, cumulative dose levels as high as 6.4 g/kg",not associated with any detectable toxicity
same,acute or subacute toxicity,[6]; single intraperitoneal or oral bolus dose levels as high as 500 mg/kg,without any detectable acute or subacute toxicity
same,IC50,"[1]; Human immunodeficiency virus 1, read-out: IC50 (nM), Mean ± SE, Group B (n = 6) recombinant clones",27.6 ± 7.9 nM
same,IC50,"[1]; Human immunodeficiency virus 1, read-out: IC50 (nM), median, Group B (n = 6)",22.5 nM
same,IC50,[1]; [10],19.9 nM
same,IC50,[1]; [11],6 nM
same,IC50,[1]; [12],43 nM
same,IC50,[1]; [13],13.7 nM
same,IC50,[1]; [14],25 nM
same,IC50,[1]; [15],57.9 nM
same,IC50,"[1]; Human immunodeficiency virus 1, read-out: IC50 (nM), range, Group B (n = 6)",6 to 57.9 nM
same,IC50,[1]; [16],34.3 ± 11.9 nM
same,IC50,[3]; [17],5.8 nM
same,IC50,[3]; [18],0.6 nM
same,IC50,[3]; [19],0.2 nM
same,IC50,[3]; [20],0.8 nM
same,IC50,[3]; [21],4.6 nM
same,IC50,[3]; [22],6.3 nM
same,IC50,[3]; [23],3.1 ± 1.2 nM
same,logs more potent than lamivudine,[3]; [35],> 3.4 logs
same,logs more potent than zidovudine(AZT),[3]; [35],> 1.4 logs
same,tolerability of four-week treatment course,[7],very well tolerated
same,IC50,[5]; [24],0.0794 ± 0.0187 µM
same,IC50,[5]; [25],0.1 µM
same,IC50,[5]; [26],0.06 µM
same,IC50,[5]; [27],0.08 µM
same,IC50,[5]; [28],0.015 µM
same,IC50,[5]; [29],0.04 µM
same,IC50,[5]; [30],0.015 µM
same,IC50,[5]; [31],0.18 µM
same,IC50,[5]; [32],0.08 µM
same,IC50,[5]; [33],0.11 µM
same,IC50,[5]; [34],0.03 µM
same,IC50,"[5]; read-out: mean IC50 value (plaque assay), mean over 9 zidovudine-resistant isolates",0.0794 ± 0.0187 µM
same,stability in gastric fluid,[8]; gastric fluid,stable in gastric fluid
same,stability in intestinal fluid,"[8]; intestinal fluid, forms Ala-d4T-MP",decomposes readily in intestinal fluid
same,stability in plasma and whole blood,[8]; plasma or whole blood,readily metabolizes
same,cytotoxicity in MT2 cells,human T-cell line MT2,without any evidence of cytotoxicity
same,parent compound in blood,[9]; after oral administration,No parent d4T-5′-[p-bromophenyl methoxyalaninyl phosphate] was detectable
same,elimination half-life (t1/2) of the administered substance,[9],3.5 min
"Cc1cn([C@H]2C=C[C@@H](CO)O2)c(=O)[nH]c1=O [d4T, 2′,3′-didehydro-2′,3′-dideoxythymidine]",Fold decreased susceptibility,[4]; recombinant clone 1617-1,11 fold
same,Fold decreased susceptibility,[4]; recombinant clone 4755-5,3.9 fold
same,Fold decreased susceptibility,[4]; recombinant clone 7295-1,1.9 fold
same,Fold decreased susceptibility,[4]; recombinant clone 7324-1,2.6 fold
same,Fold decreased susceptibility,[4]; recombinant clone 52534-2,9 fold
same,Fold decreased susceptibility,[4]; recombinant clone 56252-1,20 fold
same,elimination half-life (t1/2) of the administered substance,[9],30.3 min
